Assay [1] has as its system GABA production. To be noted: previous microdialysis studies; cited from earlier work.
Assay [2] concerns opioid receptors. In words: Receptor assays probing binding to opioid receptors. Particulars: data not shown.
For assay [3], the system named is neurotransmitter levels (aspartate, GABA, glutamate). Particulars: infusion of 10 μM peptide into the dialysis probe, n=2.

Like-named read-outs stand apart in the source and are kept apart here.

Consider YGGFL [Leu-enkephalin], for which the “effect on GABA production” value in assay [1] is listed as “inhibits nicotine-stimulated GABA production”.
As for `CN1CCc2cccc3c2[C@H]1Cc1ccc(O)c(O)c1-3` [apomorphine], in assay [1], the “effect on GABA production” value is given as “stimulates GABA production” and the glutamate levels result was “remain the same”.
As to “SPQLEDEAKE (listed as Rattus norvegicus) [peptide I1-10]”, in assay [2], the “binding to opioid receptors” value was “negative”. In addition, in assay [3], the “GABA level (change in words)” value was “increase”, the “aspartate level (change in words)” value is “increase” and the “glutamate levels (change in words)” value is “remained the same”. In assay [3] (listed as I11lo peptide), the “GABA level (change in words)” value is recorded as “increases” and the “aspartate level (change in words)” value is “increases”.

These data come from US20040014143A1, “Method and apparatus for detecting and monitoring peptides, and peptides identified therewith” (priority 2002, published 2004).
